Test results: publication PMC10578308, “Design of Synthetic Surrogates for the Macrolactone Linker Motif in Coibamide A” (ACS Medicinal Chemistry Letters, 2023)
Positions of bridges follow the written chain, without caps; N, C: chain ends. Non-standard residues stand in square brackets, D forms with d. Residues, ends and D or L forms follow the SMILES beside them. *: point of attachment. NMe2Val = CC(C)[C@@H](C(=O)*)N(C)C; NMeI = CC[C@H](C)[C@H](NC)C(=O)O; NMeT = CN[C@H](C(=O)O)[C@@H](C)O; NMeL = CN[C@@H](CC(C)C)C(=O)O; NMeDap = CN[C@@H](CN)C(=O)O; dHiv = CC(C)[C@@H](O)C(=O)O; NMeS = CN[C@@H](CO)C(=O)O; NMeA = CN[C@@H](C)C(=O)O; dNMeA = CN[C@H](C)C(=O)O

Experiments:
[1] = tested on: endogenous VEGF-A secreted from human SF-268 glioblastoma cells; assay: Detection of secreted VEGF-A by ELISA; assay type: cell-based; details: 24 h, Figure S5
[2] = tested on: human A549 lung cancer cells; assay: MTS antiproliferative/cell viability assay in A549 cells; assay type: cell-based; details: for CC50: human A549 lung cancer cells, MTS, 72 h, n = 3, read-out: CC50 (concentration for a 50% decrease in viability)
Description: Next, we synthesized CbA derivatives 3a,b by Fmoc-based SPPS using Fmoc/Alloc protected lysine derivatives 4a,b, according to the synthetic procedure for CbA mimetics in our previous study (Scheme S2).[21] The bioactivity profile of the resulting peptides 3a,b was investigated by using a standard MTS antiproliferative/cell viability assay to assess the cytotoxic potential of CbA analogues against human A549 lung cancer cells (Table 1).
10% (v/v) fetal bovine serum at 37 °C in a 5% CO2-incubator. Viability assays using A549 cells were performed in 96-well plates (BD Falcon). A549 cells were seeded at 1000 cells/well in 90 μL of culture media, respectively, and were cultured for 24 h. Chemical compounds in DMSO were diluted 50-fold with the culture medium in advance. 30 μL of the chemical diluents were added. The final volume of DMSO in the medium was equal to 0.5% (v/v). The cells under chemical treatment were incubated for a further 72 h. The wells in the plates were washed twice with the cultured medium without phenol- […]
After 1-hour incubation with 100 μL of the medium, the cell culture in each well was supplemented with 20 μL of the MTS reagent (Promega), followed by incubation for additional 40 min. Absorbance at 490 nm of each well was measured using a Wallac 1420 ARVO SX multilabel counter (Perkin Elmer).
Three experiments were performed per condition and the averages of inhibition rates in each condition were evaluated to determine IC50 values using the GraphPad Prism software. […]

[3] = tested on: U87-MG glioblastoma cells; assay: CellTiter-Glo viability assay, U87-MG cells; assay type: cell-based, human; details: 50% viability after 72-hr incubation, n = 3
Description: (§1) Viability Assays Using U87 MG Cells, HCT116 Cells and normal human dermal fibroblasts.
Human U87-MG glioblastoma, HCT116 colon cancer cells and normal human dermal fibroblasts were from American Type Culture Collection (ATCC, Manasses, VA). U87-MG cells were cultured in Minimum Essential Medium (MEM) with Earl’s salts and L-glutamine (Corning Life Sciences), supplemented with 10% fetal bovine serum (FBS; Hyclone, Logan, UT) and 100 U/mL penicillin and […] streptomycin (1% penicillin/streptomycin). HCT116 cells were cultured in McCoy’s 5A medium supplemented with 10% FBS and 1% penicillin/streptomycin. […]
(§2) (#PCS-201-041) from ATCC. All cells were grown under standard conditions and maintained at 37 °C in an atmosphere of 5% CO2. For analysis of biological activity, cells were seeded at 3,000 cells/well into 96-well plates and allowed to attach overnight. On the day of the experiment, all cells were treated at the same time with the test compound or vehicle (0.1% DMSO) and plates returned to the cell culture incubator for 72 h. The viability of cells was measured at 72 h using a CellTiter-Glo® Luminescent Cell Viability Assay (Promega Corp) and luminescent signals measured using a multi-mode microplate reader (Biotek Synergy HT). Concentration-response relationships were analyzed using GraphPad Prism Software version 9.5.1 (GraphPad Software, Inc., San Diego, CA), and CC50 values derived using nonlinear regression analysis fit to a logistic equation. […]

[4] = tested on: HCT116 colon cancer cells; assay: CellTiter-Glo viability assay, HCT116 cells; assay type: cell-based, human; details: 50% viability after 72-hr incubation, n = 3
Description: as §1
(§3) Human U87-MG glioblastoma, HCT116 colon cancer cells and normal human dermal fibroblasts were from American Type Culture Collection (ATCC, Manasses, VA). […]
[…] streptomycin (1% penicillin/streptomycin). HCT116 cells were cultured in McCoy’s 5A medium supplemented with 10% FBS and 1% penicillin/streptomycin. […]
as §2

[5] = molecular target: GLuc secretion (model Sec61 substrate) from U87-MG-GLuc cells (Homo sapiens, UniProt P61619); assay: Gaussia luciferase (GLuc) secretory assay; assay type: cell-based; details: 18-h incubation, n = 3, read-out: IC50 (50% inhibition of GLuc expression)
GLuc secretion (model Sec61 substrate) from U87-MG-GLuc cells, sequence (P61619 whole entry): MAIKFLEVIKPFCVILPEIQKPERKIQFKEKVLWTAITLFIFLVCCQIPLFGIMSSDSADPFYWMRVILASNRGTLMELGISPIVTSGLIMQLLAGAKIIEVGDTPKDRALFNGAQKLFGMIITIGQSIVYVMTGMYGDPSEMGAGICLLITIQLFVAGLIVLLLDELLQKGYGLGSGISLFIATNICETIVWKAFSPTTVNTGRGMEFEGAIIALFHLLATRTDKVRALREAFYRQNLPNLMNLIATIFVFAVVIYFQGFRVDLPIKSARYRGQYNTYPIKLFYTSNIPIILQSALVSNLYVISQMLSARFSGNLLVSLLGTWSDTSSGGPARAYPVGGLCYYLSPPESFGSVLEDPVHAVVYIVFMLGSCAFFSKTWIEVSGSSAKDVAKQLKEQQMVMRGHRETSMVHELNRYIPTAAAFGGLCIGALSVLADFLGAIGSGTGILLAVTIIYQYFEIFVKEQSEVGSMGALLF
Description: To investigate the mechanistic basis for cytotoxicity, all CbA derivatives were evaluated for their ability to inhibit expression of a model Sec61 substrate using U87-MG cells engineered to express a naturally secreted reporter protein, Gaussia luciferase (GLuc) (Tables 1 and 2). For these studies, U87-MG-GLuc cells were exposed to increasing concentrations of each peptide, or vehicle, for 18 h, and the cell culture medium was assayed for the presence of GLuc. […]
Gaussia Luciferase (GLuc) Secretory Assay
The generation of U87-MG cells expressing the secreted reporter Gaussia luciferase (GLuc) has been described previously.S5,S6 U87-MG-GLuc cells were cultured in Minimum Essential Medium (MEM) with Earl’s salts and L-glutamine (Corning Life Sciences), supplemented with 10% fetal bovine serum […]
(FBS; Hyclone, Logan, UT) and 100 U/mL penicillin and […] streptomycin (1% penicillin/streptomycin). All cells were grown under standard conditions and maintained at 37 °C in an atmosphere of 5% CO2. For analysis of biological activity, cells were seeded at 3,000 cells/well into 96-well plates and allowed to attach overnight. On the day of the experiment, all cells were treated at the same time with the test compound or vehicle (0.1% DMSO) and plates returned to the cell culture

[6] = tested on: normal human dermal fibroblasts (HDFs); assay: CellTiter-Glo viability assay, normal human dermal fibroblasts; assay type: cell-based; details: 50% viability after 72-hr incubation, n = 3, read-out: HDF CC50
Description: as §1, §3
as §2, with “Human dermal fibroblasts were cultured in Fibroblast Basal Medium (#PCS-201-030) supplemented with Fibroblast Growth Kit (#PCS-201-041)” for “(#PCS-201-041)”

[7] = as above; assay type: cell-based; details: normal human dermal fibroblasts (HDFs), 50% viability after 72-hr incubation, n = 3, read-out: HDF CC50
Description: as §1, §3
as §2, with “Human dermal fibroblasts were cultured in Fibroblast Basal Medium (#PCS-201-030) supplemented with Fibroblast Growth Kit (#PCS-201-041)” for “(#PCS-201-041)”

SMILES	expression of endogenous secreted VEGF-A (in words) [1]	CC50 [2] [nM]	CC50 [3] [nM]	CC50 [4] [nM]	IC50 [5] [nM]	CC50 [6] [nM]	CC50 at 72 h [7] [nM]	fold more potent (cytotoxicity) than 1a ([2]; A549 cells, CC50 compared with 1a)	fold more potent (cytotoxicity) than 3a ([2]; A549 cells, CC50 compared with 3a) [fold]
CC[C@H](C)[C@H]1C(=O)N[C@@H](C)C(=O)N(C)[C@@H](CC(C)C)C(=O)N[C@@H](Cc2ccc(OC)cc2)C(=O)N(C)[C@H](C)CC[C@H](C)[C@H](N(C)C(=O)[C@H](CC(C)C)N(C)C(=O)[C@H](C)N(C)C(=O)[C@H](OC(=O)[C@H](C(C)C)N(C)C)C(C)C)C(=O)N(C)[C@@H](C)C(=O)N1C [Peptide 3a]	statistically significant and concentration-dependent decreases	41 ± 4	56 ± 2	121 ± 23	18 ± 1	213 ± 29	–	–	–
CC[C@H](C)[C@H]1C(=O)N[C@@H](C)C(=O)N(C)[C@@H](CC(C)C)C(=O)N[C@@H](Cc2ccc(OC)cc2)C(=O)N(C)[C@H](C)C(=O)O[C@H](C)[C@H](N(C)C(=O)[C@H](CC(C)C)N(C)C(=O)[C@H](C)N(C)C(=O)[C@H](OC(=O)[C@H](C(C)C)N(C)C)C(C)C)C(=O)N(C)[C@@H](C)C(=O)N1C [Peptide 1b, reference compound] (NMe2Val-[dHiv][NMeA][NMeL][NMeT][NMeA][NMeI]A[NMeL]Y(Me)[dNMeA]; ester 4-C)	–	3.1 ± 0.8	2.6 ± 0.1	3.9 ± 0.5	2 ± 0.3	4.6 ± 1.5	–	–	–
CC[C@H](C)[C@H]1C(=O)N[C@@H](C)C(=O)N(C)[C@@H](CC(C)C)C(=O)N[C@@H](Cc2ccc(OC)cc2)C(=O)N(C)[C@H](C)C(=O)O[C@H](C)[C@H](N(C)C(=O)[C@H](CC(C)C)N(C)C(=O)[C@H](COC)N(C)C(=O)[C@H](OC(=O)[C@H](C(C)C)N(C)C)C(C)C)C(=O)N(C)[C@@H](COC)C(=O)N1C [Coibamide A (1a), coibamide A] (NMe2Val-[dHiv][NMeS](Me)[NMeL][NMeT][NMeS](Me)[NMeI]A[NMeL]Y(Me)[dNMeA]; ester 4-C)	–	1.5 ± 0.4	50 ± 6	2.7 ± 0.5	1.1 ± 0.3	–	6.7 ± 2.1	–	–
CC[C@H](C)[C@H]1C(=O)N[C@@H](C)C(=O)N(C)[C@@H](CC(C)C)C(=O)N[C@@H](Cc2ccc(OC)cc2)C(=O)N(C)[C@H](C)C(=O)NC[C@H](N(C)C(=O)[C@H](CC(C)C)N(C)C(=O)[C@H](C)N(C)C(=O)[C@H](OC(=O)[C@H](C(C)C)N(C)C)C(C)C)C(=O)N(C)[C@@H](C)C(=O)N1C [Peptide 17a] (NMe2Val-[dHiv][NMeA][NMeL][NMeDap][NMeA][NMeI]A[NMeL]Y(Me)[dNMeA]; lactam 4-C)	–	–	48 ± 3	60 ± 4	30 ± 3.9	123 ± 25	–	–	–
CC[C@H](C)[C@H]1C(=O)N[C@@H](C)C(=O)N(C)[C@@H](CC(C)C)C(=O)N[C@@H](Cc2ccc(OC)cc2)C(=O)N(C)[C@H](C)C(=O)N[C@H](C)[C@H](N(C)C(=O)[C@H](CC(C)C)N(C)C(=O)[C@H](COC)N(C)C(=O)[C@H](OC(=O)[C@H](C(C)C)N(C)C)C(C)C)C(=O)N(C)[C@@H](COC)C(=O)N1C [Peptide 16b]	–	1.3 ± 0.3	2.2 ± 0.4	3.4 ± 0.6	0.04 ± 0.02	3.9 ± 1.5	–	–	–
CC[C@H](C)[C@H]1C(=O)N[C@@H](C)C(=O)N(C)[C@@H](CC(C)C)C(=O)N[C@@H](Cc2ccc(-c3ccccc3)cc2)C(=O)N(C)[C@H](C)C(=O)N[C@H](C)[C@H](N(C)C(=O)[C@H](CC(C)C)N(C)C(=O)[C@H](COC)N(C)C(=O)[C@H](OC(=O)[C@H](C(C)C)N(C)C)C(C)C)C(=O)N(C)[C@@H](COC)C(=O)N1C [Peptide 16c]	–	0.27 ± 0.1	0.6 ± 0.2	0.8 ± 0.23	0.08 ± 0.03	0.38 ± 0.08	–	approximately 5 fold	–
CC[C@H](C)[C@H]1C(=O)N[C@@H](C)C(=O)N(C)[C@@H](CC(C)C)C(=O)N[C@@H](Cc2ccc(OC)cc2)C(=O)N(C)[C@H](C)C(=O)N(C)C[C@H](N(C)C(=O)[C@H](CC(C)C)N(C)C(=O)[C@H](C)N(C)C(=O)[C@H](OC(=O)[C@H](C(C)C)N(C)C)C(C)C)C(=O)N(C)[C@@H](C)C(=O)N1C [Peptide 17b]	–	6500	–	–	–	–	–	–	–
CC[C@H](C)[C@H]1C(=O)N[C@@H](C)C(=O)N(C)[C@@H](CC(C)C)C(=O)N[C@@H](Cc2ccc(OC)cc2)C(=O)N(C)[C@H](C)/C=C/[C@H](C)[C@H](N(C)C(=O)[C@H](CC(C)C)N(C)C(=O)[C@H](C)N(C)C(=O)[C@H](OC(=O)[C@H](C(C)C)N(C)C)C(C)C)C(=O)N(C)[C@@H](C)C(=O)N1C [Peptide 3b]	–	2.6 ± 0.4	6.2 ± 0.1	11 ± 1	13 ± 2	8.3 ± 2.1	–	–	10
CC[C@H](C)[C@H]1C(=O)N[C@@H](C)C(=O)N(C)[C@@H](CC(C)C)C(=O)N[C@@H](Cc2ccc(OC)cc2)C(=O)N(C)[C@H](C)C(=O)N[C@H](C)[C@H](N(C)C(=O)[C@H](CC(C)C)N(C)C(=O)[C@H](C)N(C)C(=O)[C@H](OC(=O)[C@H](C(C)C)N(C)C)C(C)C)C(=O)N(C)[C@@H](C)C(=O)N1C [Peptide 16a]	–	3.6 ± 1.4	3.9 ± 0.5	4.5 ± 0.5	0.71 ± 0.09	4.6 ± 1.4	–	–	–
